The results in this text go back to patent US8563053B2, “Compositions and methods of natural products in nanoformulations for the prevention and treatment of osteoporosis” (priority 2009, dated 2013).

In experiment [1] the test system is postmenopausal women. The experiment is described as follows: Postmenopausal women with high versus low dietary intake / serum lycopene: oxidative stress and bone markers. In kind it is in vivo, human. The conditions noted are these: women with higher serum lycopene. An excerpt:
Work of the inventors of the present invention, both experimental work and work with humans, provides evidence for a positive effect of the potent antioxidant “Lycopene” on bone health.

The test system of experiment [2] is healthy postmenopausal women. In words: Supplementation of healthy postmenopausal women with lycopene: oxidative stress and bone turnover markers. In kind it is in vivo, human. Conditions: 30 mg/day for 6 months.

For the compound `CC(C)=CCC/C(C)=C/C=C/C(C)=C/C=C/C(C)=C/C=C/C=C(C)/C=C/C=C(C)/C=C/C=C(\C)CCC=C(C)C` [lycopene], in experiment [1], the “bone formation markers (s-Osteocalcin and bone-specific ALP)” value is reported as “improve”; the “bone resorption markers (u-NTX, s-CTX)” value is “improve”; the “oxidative stress (lipid and protein oxidation, catalase and superoxide dismutase activities)” value is reported as “reduced oxidative stress”. Moreover, in experiment [2] (bone formation marker), the s-BALP entry is recorded as “increases” and the s-OC result is listed as “increases”. In addition, in experiment [2] (bone resorption marker), the s-CTX entry was “significant decreases” and the u-NTX result is listed as “significant decreases”. Further, in experiment [2] (healthy postmenopausal women), the bone turnover markers entry is reported as “significantly improved” and the oxidative stress entry is on record as “significantly improved”.
